Experimental data: BindingDB's records for PubMed 7915318 (Ohio State University, 1994)
Where “and” joins values, the source holds several entries; their conditions need not be identical. Equal values may be shown once.

Key:
[1] = target: Beta-2 adrenergic receptor (Cavia porcellus, UniProt Q8K4Z4)
[2] = target: Beta-1 adrenergic receptor (Cavia porcellus, UniProt B0FL73)
[3] = target: Beta-1 adrenergic receptor (Homo sapiens, UniProt P08588)
[4] = target: Beta-2 adrenergic receptor (Homo sapiens, UniProt P07550)
Chain of Beta-2 adrenergic receptor (Homo sapiens, UniProt P07550) (P07550 whole entry): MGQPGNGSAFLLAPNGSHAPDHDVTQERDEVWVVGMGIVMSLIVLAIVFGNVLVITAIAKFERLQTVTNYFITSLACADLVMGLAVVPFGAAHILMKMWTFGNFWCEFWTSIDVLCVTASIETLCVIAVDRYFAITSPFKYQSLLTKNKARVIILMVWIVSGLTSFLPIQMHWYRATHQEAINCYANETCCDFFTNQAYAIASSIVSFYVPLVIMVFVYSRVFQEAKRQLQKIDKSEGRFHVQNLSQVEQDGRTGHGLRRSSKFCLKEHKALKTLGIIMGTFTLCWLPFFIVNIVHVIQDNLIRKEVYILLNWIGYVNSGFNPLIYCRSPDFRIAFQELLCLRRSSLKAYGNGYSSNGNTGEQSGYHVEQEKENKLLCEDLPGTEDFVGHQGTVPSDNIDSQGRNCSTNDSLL

Chain of Beta-1 adrenergic receptor (Cavia porcellus, UniProt B0FL73) (B0FL73 whole entry): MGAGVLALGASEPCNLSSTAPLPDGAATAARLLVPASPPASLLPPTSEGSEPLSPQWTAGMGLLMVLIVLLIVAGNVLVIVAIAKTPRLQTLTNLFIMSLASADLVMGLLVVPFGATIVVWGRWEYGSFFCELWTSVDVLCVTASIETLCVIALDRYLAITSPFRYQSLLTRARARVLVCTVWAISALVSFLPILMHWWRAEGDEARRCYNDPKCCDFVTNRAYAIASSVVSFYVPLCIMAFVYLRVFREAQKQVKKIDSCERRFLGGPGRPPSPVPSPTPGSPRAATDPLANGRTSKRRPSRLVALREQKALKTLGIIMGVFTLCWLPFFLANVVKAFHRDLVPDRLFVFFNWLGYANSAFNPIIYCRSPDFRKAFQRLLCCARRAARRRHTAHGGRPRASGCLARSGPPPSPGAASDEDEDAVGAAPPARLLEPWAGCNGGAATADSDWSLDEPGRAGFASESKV
Chain of Beta-2 adrenergic receptor (Cavia porcellus, UniProt Q8K4Z4) (Q8K4Z4 whole entry): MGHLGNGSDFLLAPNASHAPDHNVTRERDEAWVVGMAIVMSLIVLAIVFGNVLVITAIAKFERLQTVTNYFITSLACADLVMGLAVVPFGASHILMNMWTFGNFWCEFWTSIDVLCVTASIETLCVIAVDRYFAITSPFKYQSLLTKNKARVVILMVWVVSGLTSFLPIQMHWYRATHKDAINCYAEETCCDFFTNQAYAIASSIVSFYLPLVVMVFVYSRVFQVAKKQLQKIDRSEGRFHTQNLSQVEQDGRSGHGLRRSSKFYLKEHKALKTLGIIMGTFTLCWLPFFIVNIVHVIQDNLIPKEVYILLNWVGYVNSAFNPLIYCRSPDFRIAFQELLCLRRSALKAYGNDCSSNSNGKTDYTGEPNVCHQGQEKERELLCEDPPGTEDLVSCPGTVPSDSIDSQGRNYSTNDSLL
Chain of Beta-1 adrenergic receptor (Homo sapiens, UniProt P08588) (P08588 whole entry): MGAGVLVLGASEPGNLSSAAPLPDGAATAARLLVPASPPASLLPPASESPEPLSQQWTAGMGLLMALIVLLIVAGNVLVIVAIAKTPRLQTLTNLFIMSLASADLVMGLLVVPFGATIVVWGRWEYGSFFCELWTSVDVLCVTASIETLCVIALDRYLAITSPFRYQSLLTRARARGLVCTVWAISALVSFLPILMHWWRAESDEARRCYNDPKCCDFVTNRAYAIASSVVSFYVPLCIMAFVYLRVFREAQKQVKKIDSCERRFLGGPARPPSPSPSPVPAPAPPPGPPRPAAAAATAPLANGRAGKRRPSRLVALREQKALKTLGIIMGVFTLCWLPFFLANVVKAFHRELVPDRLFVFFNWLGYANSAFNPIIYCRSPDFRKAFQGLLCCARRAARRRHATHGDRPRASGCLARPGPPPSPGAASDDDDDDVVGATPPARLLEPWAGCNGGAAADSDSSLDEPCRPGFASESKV

Row | Compound | Ki [1] | Ki [2] [nM] | Ki [3] [nM] | Ki [4]
1 | COc1cc(CC2NCCc3c2cc(O)c(O)c3C(F)(F)F)cc(OC)c1OC (stereo unspecified) [TMQ, 5-TrifluoroMe] | 1170 nM and 912 nM | 1100 |  | 
2 | COc1cc(CC2NCCc3cc(O)c(O)cc32)cc(OC)c1OC (stereo unspecified) [1-(3,4,5-Trimethoxy-benzyl)-1,2,3,4-tetrahydro-isoquinoline-6,7-diol] | 105 nM and 22.9 nM |  |  | 
3 | COc1cc(CC2NCCc3cc(O)c(O)cc32)cc(I)c1OC (stereo unspecified) [TMQ, 3'-Iodo] | 1.09 nM and 2.34 nM | 10 | 12.6 | 2.69 nM and 1.69 nM
4 | COc1cc(CC2=NCCc3cc(O)c(O)cc32)cc(OC)c1OC [TMQ, Amidine] | > 10000 nM |  |  | 
5 | CC(C)NCC(O)c1ccc(O)c(O)c1 (stereo not drawn) [Isoproterenol,(+)] | 324 nM and 107 nM |  |  | 
6 | COc1cc(CC2NCCc3c2cc(O)c(O)c3I)cc(OC)c1OC (stereo unspecified) [TMQ, 5-Iodo] | 37.1 nM and 11.5 nM | 33.9 |  | 10.2 nM
7 | COc1cc(C[C@H]2NCCc3cc(O)c(O)cc32)cc(OC)c1OC [TMQ, R-(+)] | > 10000 nM and 9330 nM | > 10000 |  | 
8 | COc1cc(CC2NCCc3cc(O)c(O)c(I)c32)cc(OC)c1OC (stereo unspecified) [TMQ, 8-Iodo] | 363 nM and 380 nM | 631 |  | 759 nM and 437 nM
9 | COc1cc(CC2NCCc3cc(O)c(O)cc32)cc([N+](=O)[O-])c1OC (stereo unspecified) [TMQ, 3'-Nitro] | 11 nM and 2.75 nM | 31.6 | 14.8 | 46.8 nM
10 | COc1cc(CC2NCCc3cc(O)c(O)cc32)cc2c1OS(=O)O2 (stereo unspecified) [TMQ, Cyclic sulfite] | 3470 nM and 1950 nM | > 10000 |  | 
11 | COc1cc(C[C@@H]2NCCc3cc(O)c(O)cc32)cc(OC)c1OC [CAS_65772] | 27.5 nM and 9.77 nM | 110 |  | 
12 | COc1cc(CC2NCCc3c(F)c(O)c(O)c(F)c32)cc(OC)c1OC (stereo unspecified) [TMQ, 5,8-Difluoro] | 6.6 nM and 4.26 nM | 34.7 | 7.41 | 8.7 nM and 6.16 nM
13 | COc1c(I)cc(CC2NCCc3cc(O)c(O)cc32)cc1I (stereo unspecified) [TMQ, 3',5'-Diiodo] | 2.81 nM and 0.97 nM | 10.5 |  | 0.58 nM and 0.74 nM
14 | COc1cc(CC2NCCc3cc(O)c(O)cc32)cc(N)c1OC (stereo unspecified) [TMQ, 3'-Amino] | 490 nM and 97.7 nM | 457 | 214 | 141 nM
15 | COc1cc(CC2NCCc3cc(O)c(O)c(F)c32)cc(OC)c1OC (racemic) [NSC_128658] |  |  | 37.1 | 8.7 nM
16 | CC(C)NCC(O)COc1cccc2[nH]ccc12 (stereo unspecified) [LB-46] | 2.63 nM and 1.14 nM | 7.24 |  | 

More lines, now with the values ahead:

Row | Ki [1] | Ki [2] [nM] | Ki [3] [nM] | Ki [4] | Compound
17 | 1860 nM | 3550 |  |  | COc1cc(CC2c3cc(O)c(O)cc3CCN2Cc2ccc(Cl)c(Cl)c2)cc(OC)c1OC (stereo unspecified) [TMQ, N-dichlorobenzyl]
18 | 851 nM |  |  |  | COc1cc(CC2c3cc(O)c(O)cc3CCN2C)cc(OC)c1OC (stereo unspecified) [TMQ, N-methyl]
19 | 1260 nM | 6170 |  |  | COc1cc(CC2c3cc(O)c(O)cc3CCN2Cc2cccc(Cl)c2)cc(OC)c1OC (stereo unspecified) [TMQ, N-chloro-benzyl]
20 |  |  | 417 | 437 nM | COc1cc(C[C@H]2NCCc3cc(O)c(O)c(F)c32)cc(OC)c1OC [TMQ, R-(-)-8-Fluoro]
21 | 2750 nM | 5370 |  |  | COc1cc(CC2c3cc(O)c(O)cc3CCN2CCO)cc(OC)c1OC (stereo unspecified) [TMQ, N-hydroxyethyl]
22 | 3720 nM and 1320 nM |  |  | 933 nM | COc1cc(CC2c3cc(O)c(O)cc3CCN2Cc2cccc(N)c2)cc(OC)c1OC (stereo unspecified) [TMQ, N-amino-benzyl]
23 |  | > 10000 |  |  | CC(C)(C)NCC(O)c1cc(O)cc(O)c1 (racemic) [Terbutaline,(+/-)]
24 |  | 1100 |  |  | COc1cc(CC2c3cc(O)c(O)cc3CCN2Cc2ccccc2)cc(OC)c1OC (stereo unspecified) [TMQ, N-benzyl]
25 |  |  | 67.6 | 10.2 nM | COc1cc(C[C@@H]2NCCc3cc(O)c(O)c(F)c32)cc(OC)c1OC [TMQ, S-(+)-8-Fluoro]
26 | 1620 nM and 1480 nM |  |  |  | COc1cc(CC2c3cc(O)c(O)cc3CCN2Cc2cccc([N+](=O)[O-])c2)cc(OC)c1OC (stereo unspecified) [TMQ, N-nitro-benzyl]
